Experimental data taken from patent US20130029976A1, “PEST CONTROLLING COMPOSITION” (SUMITOMO CHEMICAL COMPANY, LIMITED, priority 2010, published 2013).

Tested on: third instar larvae of Spodoptera litura
Test: Test Example 1: cabbage leaf immersion test, insecticidal ratio
Assay type: in vivo
Settings: cabbage leaf immersed 60 seconds, 2 days after, three replications
Protocol: A flowable formulation containing 10.0% by weight of pyridalyl (trade name: Pleo® flowable, manufactured by Sumitomo Chemical Co., Ltd.) was diluted with water containing 0.02% by volume of a spreading agent (trade name: Sindain®, manufactured by Sumitomo Chemical Co., Ltd.) so as to adjust the concentration of pyridalyl to 12.5 ppm.
A flowable formulation containing 10.0% by weight of indoxacarb (trade name: Tornado® flowable, manufactured by DuPont) was diluted with water containing 0.02% by volume of a spreading agent (trade name: Sindain®, manufactured by Sumitomo Chemical Co., Ltd.) so as to adjust the concentration of indoxacarb to 6.25 ppm.
The water dilution of pyridalyl and the water dilution of indoxacarb were mixed in the same amount to prepare a test chemical solution.
A cabbage was planted in a pot having a volume of 860 ml and grown to the forth leaf stage. Each leaf of the cabbage seedling was cut off. One leaf of the cabbage was immersed in the test chemical solution for 60 seconds. After air-drying, the leaf was placed in a cup having a volume of 500 ml in which filter paper had been spread on the bottom. In the cup, 10 third instar larvae of Spodoptera litura were released (the inside of the cup containing the treated cabbage was regarded as the treated area). […]
An insecticidal ratio was calculated by correcting the results using the following equation. […]

Structure (SMILES) | Insecticidal ratio (%) (active ingredient 3.13 ppm) | Insecticidal ratio (%) (active ingredient 6.25 ppm)
COC(=O)N(C(=O)N1CO[C@@]2(C(=O)OC)Cc3cc(Cl)ccc3C2=N1)c1ccc(OC(F)(F)F)cc1 [Indoxacarb, methyl(4aS)-7-chloro-2,5-dihydro-2-[[(methoxycarbonyl)[4-(trifluoromethoxy)phenyl]amino]carbonyl]indeno[1,2-e] [1,3,4]oxadiazine-4a(3H)-carboxylate] | 16.7 | –
FC(F)(F)c1ccc(OCCCOc2c(Cl)cc(OCC=C(Cl)Cl)cc2Cl)nc1 [Pyridalyl, 2-[3-[2,6-dichloro-4-[(3,3-dichloro-2-propenyl)oxy]phenoxy]propoxy]-5-(trifluoromethyl)pyridine] | – | 10.0
